Experiments:
[1] = system: rabbit corneal endothelial cells; assay: Dose-response test: rabbit corneal endothelial cells co-cultivated with rabbit corneal stroma cells; assay type: cell-based; settings: 20 μmol/L LPA, 5 days of cultivation, co-culture with corneal stroma cells
Procedure: The tissue culture media (DMEM, 10% FBS, 25 μg/mL gentamycin) added with 0 μmol/L, 10 μmol/L, 20 μmol/L, and 100 μmol/L of LPA were used for co-cultivating the rabbit corneal endothelial cells and the rabbit corneal stroma cells at 37° C. with 5% CO2. After 5 days of cultivation, the cell number of the rabbit corneal endothelial cells of each groups were calculated and shown in FIG. 6. […] According to the result, the tissue culture media used for the following experiments was added with 20 μmol/L LPA.

[2] = system: corneal endothelial cells of rabbit corneal tissue; assay: Evaluation of the corneal endothelial cell density of the corneal tissue (tissue culture dish 100); assay type: cell-based; settings: 20 μmol/L LPA
Procedure: The rabbit corneal tissues were placed individually in the tissue culture dishes 100, cultivated with the tissue culture media (DMEM basal medium, 10% FBS, and 25 μg/mL gentamycin) added with 20 μmol/L LPA (Example) or without LPA (Comparative example), and incubated at 37° C. with 5% CO2, wherein a portion of the corneal epithelium layer of the rabbit corneal tissues faced toward the first direction A and contacted with air and the corneal endothelium layer contacted with the tissue culture media. After 7 days of cultivation, the cell morphology and the analysis of cell density of the corneal endothelium layer were shown in FIG. 7 and FIG. 8. The density of the corneal endothelial cells of the example on day 0 was 3766.7±332.9 cells/mm^2, 4572.2±179.8 cells/mm^2 on day 5, and 4950.0±304.1 cells/mm^2 on day 7. […] According to the result, the corneal endothelial cell density may be increased in the LPA-treated example.

[3] = system: corneal endothelial cells of rabbit corneal tissue; assay: Morphology of the corneal endothelial cells of the corneal tissue (ZO-1 immunostaining); assay type: cell-based; settings: 10 μmol/L LPA, 7 days
Procedure: (§1) The rabbit corneal tissues were placed individually in the tissue culture dishes 100, cultivated with the tissue culture media (DMEM basal medium, 10% FBS, and 25 μg/mL gentamycin) added with 10 μmol/L LPA (Example) or without LPA (Comparative example), and incubated at 37° C. with 5% CO2 for 7 days, wherein a portion of the corneal epithelium layer of the rabbit corneal tissues faced toward the first direction A and contacted with air and the corneal endothelium layer contacted with the tissue culture media. The corneal endothelium layer was immunostained for ZO-1 on day 0 and day 7 for observing the cell morphology of the corneal endothelial cells of the corneal tissue.

[4] = system: corneal endothelial cells of rabbit corneal tissue; assay: Evaluation of the cell proliferation of the corneal tissue (BrdU labeling); assay type: cell-based; settings: 10 μmol/L LPA, 7 days, BrdU from day 5 to day 7
Procedure: as §1, with “Bromodeoxyuridine (BrdU)” for “The corneal endothelium layer”, “added to the culture media from” for “immunostained for ZO-1 on”, “5 to” for “0 and”, “proliferation” for “cell morphology”, “cells.” for “corneal endothelial cells of the corneal tissue.”

[5] = system: damaged rabbit corneal endothelium layer; assay: Healing effect of the damaged corneal endothelium layer of the corneal tissue (Alizarin Red S staining); assay type: cell-based; settings: 20 μmol/L LPA
Procedure: A polyvinylidene fluoride (PVDF) filter membrane with regularly punched-out holes was used to cover the rabbit corneal endothelium layer; exposing the inner damage zone (I) scraped with Cellulose Eye Spears. The rest area of the corneal endothelium layer was defined as the outer damage zone (O). The damaged corneal tissues were placed individually in the tissue culture dishes 100, cultivated with the tissue culture media (DMEM basal medium, 10% FBS, and 25 μg/mL gentamycin) added with 20 μmol/L LPA (Example) or without LPA (Comparative example), and incubated at 37° C. with 5% CO2, wherein a portion of the corneal epithelium layer of the rabbit corneal tissues faced toward the first direction A and contacted with air and the corneal endothelium layer contacted with the tissue culture media. The inner damage zone (I) and the outer damage zone (O) of the corneal tissues on day 0 and day 2 were observed using Alizarin Red S staining. The morphology of the corneal tissue stained by Alizarin Red S was shown in FIG. 12, wherein the stained area (brown color) represented the corneal […] of the inner damage zone (I) and the unstained area represented the corneal endothelial cells of the outer zone (O). […] Refer to FIG. 14, the corneal endothelial cell density of the inner damage zone of the LPA-treated example was 1358±8 0.4 cells/mm^2, and the circularity and aspect ratio of the corneal endothelial cells were 0.68±0.15 and 2.39±1.14. However the corneal endothelial cell density of the inner damage zone of the comparative example was 900.0±198.4 cells/mm^2, and the circularity and aspect ratio of the corneal endothelial cells were 0.43±0.14 and 4.91±2.43. According to the results, the addition of LPA can stimulate cell proliferation of the damaged corneal tissue. Also, LPA enhanced the repopulation of the neighbor corneal endothelial cells to the damage zones.

[6] = system: corneal endothelial cells of transplanted damaged corneal tissue; assay: Evaluation of corneal tissue transplantation into rabbit eyes; assay type: in vivo; settings: damaged cornea cultivated 2 days with 20 μmol/L LPA, day 6
Procedure: The damaged corneal tissues were prepared using the PVDF filter membrane described above (please refer to the above paragraph). Then, those damaged corneal tissues were placed individually in the tissue culture dishes 100, cultivated with the tissue culture media (DMEM basal medium, 10% FBS, and 25 μg/mL gentamycin) added with 20 μmol/L LPA (Example) or without LPA (Comparative example 1), and incubated at 37° C. with 5% CO2, wherein a portion of the corneal epithelium layer of the rabbit corneal tissues faced toward the first direction A and contacted with air and the corneal endothelium layer contacted with the tissue culture media. After 2 days of cultivation, the damaged corneal tissues were transplanted into rabbit eyes. In addition, total corneal endothelium scrapping and undamaged mock donor corneas were also prepared to serve as comparative examples 2 and 3. External eye photography was taken in the rabbits after transplantation on day 0 and day 6, respectively. Following sacrifice on day 6, the corneal endothelial cells were stained with Alizarin Red S for observations of the cell morphology of the corneal endothelial cells in all density zones (A) (average of high-density and low-density zones) and cell shape in low-density zone (L) were examined. […] Please refer to FIG. 16 showing the analysis of the corneal endothelial cell density, circularity, and aspect ratio. The corneal endothelial cell density of the example was 2200.0±90.1 cells/mm^2, and the circularity and the aspect ratio of the corneal endothelial cells of example 1 were 0.84±0.05 and 1.35±0.02. However, in comparative example 1, the cell density was 1700.0±288.3 cells/mm^2, the circularity was 0.69±0.12, and the aspect ratio was 2.12±1.13.

[7] = system: human corneal stromal cells; assay: Gene expression analysis using cDNA microarray; assay type: cell-based; settings: 20 μmol/L LPA, 2 days
Procedure: (§2) The gene expression profiling and the cytokine of the human corneal stromal cells were analyzed using cDNA microarray chip and Cytokine Array G5 chip. The human corneal stromal cells were cultured with culture media (DMEM basal medium, 10% FBS, and 25 μg/mL gentamycin) added with 20 μmol/L LPA (served as an Example) or without adding LPA (Comparative example) and incubated at 37° C. with 5% CO2. After 2 days of cultivation, the total RNA from the human corneal stromal cells in example and comparative example were isolated with the TRIzol reagent and purified using RNeasy column. After amplification and labeling the total RNA samples, GeneChip hybridization was performed and a GeneArray G7 scanner was used to scan the results. The culture media from the example and the comparative example were collected and the cytokines were analyzed using a human cytokine antibody array. […] It was confirmed that LPA stimulated the proliferation of the endothelial cells of the corneal tissue via two pathways including directly affecting the endothelial cells and stimulating the secretion of CCL20 and IL-1β from the […].

[8] = system: human corneal stromal cells; assay: Cytokine analysis of culture media using human cytokine antibody array; assay type: cell-based; settings: 20 μmol/L LPA, 2 days
Procedure: as §2

[9] = system: corneal endothelial cells of human corneal residual tissue; assay: Proliferation and morphology of corneal endothelial cells of human corneal residual tissue (ZO-1 and Ki-67 immunostaining); assay type: cell-based; settings: 20 μmol/L LPA, Day 7, tissue immersed
Procedure: The cell morphology, cell density, and cell proliferation of the present evaluation were performed through immunostaining.
One-third of the human corneal residual tissue samples were used for immunostaining for ZO-1 directly (Day 0), while the remaining two-thirds were immersed and placed endothelial side up in the tissue culture media (DMEM basal medium, 10% FBS, and 25 μg/mL gentamycin) added with 20 μmol/L LPA (served as an Example) or without adding LPA (Comparative example) and incubated at 37° C. with 5% CO2. 7 days later, the tissues were cut into halves and subjected to immunostaining for ZO-1 and Ki-67 to evaluate the effects of LPA treatment on corneal endothelial cell density and cell proliferation. […] The corneal endothelial cell density of the LPA-treated example and the comparative example were 2848.8 cells/mm^2±331.7 cells/mm^2 and 2004.7 cells/mm^2±220.2 cells/mm^2.

For lysophosphatidic acid [LPA], the “corneal endothelial cell proliferation (cell number)” value [1] was “significantly stimulated corneal endothelial cell proliferation”, the “density of the corneal endothelial cells” value ([2]; day 0) was 3766.7±332.9 cells/mm^2 and the “density of the corneal endothelial cells” value ([2]; day 5) was 4572.2±179.8 cells/mm^2. The “density of the corneal endothelial cells” value ([2]; day 7) was 4950.0±304.1 cells/mm^2, the “morphology of the corneal endothelial cells (ZO-1)” value [3] was “not altered” and the BrdU labeling cells [4] was 35.2%±16.1%. For the same substance, the “aspect ratio of the corneal endothelial cells” value ([5]; day 2, inner damage zone) was 2.39±1.14, the “circularity of the corneal endothelial cells” value ([5]; day 2, inner damage zone) was 0.68±0.15 and the “repopulation of the inner damage zone (I)” value ([5]; two days after tissue cultivation) was “repopulated by neighbor corneal endothelial cells”. The “aspect ratio of the corneal endothelial cells” value [6] was 1.35±0.02, the “circularity of the corneal endothelial cells” value [6] was 0.84±0.05 and the “corneal endothelial cell density” value [6] was 2200.0±90.1 cells/mm^2. For the same substance, the “transparency of the transplanted corneal tissue” value [6] was “remained transparent”, the “Gene expression in stromal cells: 1L1RN (Interleukin 1 receptor antagonist)” value [7] was 17.39 fold change and the “Gene expression in stromal cells: 1L7R (Interleukin 7 receptor)” value [7] was 15.03 fold change. The “Gene expression in stromal cells: CCL5” value [7] was 17.63 fold change, the “Gene expression in stromal cells: CCL7” value [7] was 11.39 fold change and the “Gene expression in stromal cells: CCL8” value [7] was 15.89 fold change. The “Gene expression in stromal cells: CCL20” value [7] was 625.99 fold change, the “Gene expression in stromal cells: CSF3” value [7] was 85.04 fold change and the “Gene expression in stromal cells: CXCL3” value [7] was 11.31 fold change. For the same substance, the “Gene expression in stromal cells: CXCL5” value [7] was 22.32 fold change, the “Gene expression in stromal cells: CXCL10” value [7] was 20.97 fold change and the “Gene expression in stromal cells: EPGN” value [7] was 10.85 fold change. The “Gene expression in stromal cells: ESM1” value [7] was 20.11 fold change, the “Gene expression in stromal cells: IL1A (Interleukin 1 alpha)” value [7] was 58.49 fold change and the “Gene expression in stromal cells: IL1B” value [7] was 572.05 fold change. For the same substance, the “Gene expression in stromal cells: INHBA” value [7] was 20.97 fold change, the “Gene expression in stromal cells: OLR1” value [7] was 24.25 fold change and the “Cytokine content in media: CCL20” value [8] was 3.26 fold change. For the same substance, the “Cytokine content in media: CSF3” value [8] was 0.85 fold change, the “Cytokine content in media: IL1A” value [8] was 0.80 fold change and the “Cytokine content in media: IL1B” value [8] was 1.73 fold change. The Ki-67-positive cells [9] was 11.86%±2.80%, the “corneal endothelial cell density” value [9] was 2848.8 cells/mm^2 and the “morphology of corneal endothelial cells (ZO-1)” value [9] was “not altered”.

Source: patent US20210115398A1, “CORNEAL TISSUE CULTURE SYSTEM AND CORNEAL TISSUE CULTURE METHOD THEREOF” (Chang Gung Memorial Hospital, Linkou, priority 2019, published 2021)
